Assay [1] has as its system SGNs in cochlear explants. The experiment in a line: Protective effects in cochlear explant cultures co-treated with ototoxins, SGN peripheral axon count. Conditions: 20 ng/ml neurotrophin; sodium salicylate 5 mM or gentamicin 3 mM. The class given is cell-based, rat. As to the method: FIGS. 9A and 9B depict quantitation of protective effects of NT-4/5 on SGNs (FIG. 9A) and hair cells (FIG. 9B). […] The same experimental procedures were performed as in FIGS. 6A and 6B. The error bars are SEM and ** indicate that as compared to the cultures containing an ototoxin alone, p<0.001. “Con” indicates control culture.
FIG. 10 depicts quantitation of neuroprotection of different neurotrophins against sodium salicylate (Sal) and gentamicin (Gent). […] Sodium salicylate (5 mM) or gentamicin (3 mM) was added either alone or in combination with one of the neurotrophins (20 ng/ml) to 2-day cultures and the cultures were kept for 2 more days. The same experimental procedures were performed as in FIGS. 6A and 6B. […] The error bars are SEM and ** indicate that as compared to the cultures containing an ototoxin alone, p<0.001.
The protective effect of neurotrophins against ototoxicity was determined in the organotypic cultures of postnatal cochlear explants described in the Examples above. […] A human recombinant neurotrophin (Genentech, Inc.) or other growth factors, alone or in combination, was added to the culture at the same time the ototoxin was added.
Two days after treatment with ototoxins or co-treatment with ototoxins and neurotrophins (or other growth factors), the cochlear explant cultures were fixed in 4% paraformaldehyde in 0.1 M phosphate buffer (pH 7.4) for 30 min, washed in PBS, and subjected to double histochemical staining of the cochlear explant cultures. After incubation with the monoclonal antibody N52 against neurofilament protein (200 kd) in 1% Triton X100 containing 3% normal goat serum (“NGS”) for 2 days at 4° C., the explants were incubated with a Texas red-conjugated goat anti-mouse secondary antibody (1:70; Cappel) at room temperature for 40 min. The preparations were then stained with FITC-conjugated phalloidin (0.5 μg/ml; Sigma) for 45 min, washed in PBS and mounted in Fluoromount-G (Southern Biotechnology Associates, Birmingham, Ala.) which contains an anti-fading agent.

The next assay addresses trkC receptor (Homo sapiens, UniProt Q16288). Conditions: naturally occurring NGF vs NT-3; cited from earlier work.
The subject of assay [2] is spiral ganglion neurons (SGNs). Kind of assay: Neurotrophin protection of dissociated SGNs against cisplatin neurotoxicity. The class given is cell-based, rat. As to conditions: 10 ng/ml neurotrophin, cisplatin 1, 2 or 4 μg/ml. The text has this: Quantitation of viable SGNs was done in the same way as in FIG. 1. The error bars stand for SEM. […] While no difference was found between cultures containing NT-4/5 and cultures containing BDNF, the difference between cultures containing NT-3 and cultures containing NT-4/5 or BDNF was statistically very significant (P<0.001).

Assay [3] relates to spiral ganglion neurons (SGNs). Kind of assay: Survival of dissociated spiral ganglion neurons in serum-free culture. The format is cell-based, rat. As to conditions: P5 rat SGNs, 2 days, serum-free medium; neurotrophins 0.1-50 ng/ml. As to the method:
FIG. 1 is a histogram depicting the effects of NT-4/5 on SGN survival. SGNs were prepared from P5 rats, plated and kept for 2 days in serum-free medium in the absence or presence of NT-4/5 at different concentrations. Viable SGNs were identified by labeling with a neurofilament monoclonal antibody (N52), viewed under a Zeiss Axiophot microscope, and counted using a grid ocular reticule covering an area of […]. For each culture, about 10 randomly selected fields were counted. Data were collected from 3 to 5 cultures and normalized as a percentage of the number of viable neurons in the control cultures in each of the experiments. The error bars represent SEM.
FIG. 2 is a histogram depicting the effects of different neurotrophins on SGN survival. SGNs were prepared from P5 rats and maintained for 2 days in serum-free medium without or with different neurotrophins at different concentrations. Quantitation of viable SGNs was made in the same way as in FIG. 1 and the error bars are SEM. […] Difference between NT-3 and NT-4/5 or BDNF was very significant at all doses (P<0.001). No statistical difference was found between NT-4/5 and BDNF except the dose of 0.1 ng/ml (P<0.01).
Identical results (not shown) were also obtained with a different neuronal marker, a monoclonal antibody 3A10 (Furley et al., 1990). SGNs were dissociated from postnatal day 5 (P5) rat cochleae and plated in defined serum-free medium. […] The enzyme was inactivated with a mixture of 0.005% soybean trypsin inhibitor (Sigma) and 0.005% DNase (Worthington) before trituration with 0.05% DNase in Eagle's Basal Medium (“BME”). The dissociated cells were preplated on a 35 mm untreated tissue culture dish for 25 min to enrich the neuronal population. Under these experimental procedures, about 10% of the cell population were spiral ganglion neurons (“SGNs”) as determined by immunocytochemistry with a monoclonal antibody (N52; Boehringer) against neurofilaments (200 kd; Boehringer). […] Cells were plated at a density of 80,000/well. In control cultures about 75% of SGNs died after 2 days, presumably due to a lack of growth factors.

In the next assay the target is trkB receptor (Homo sapiens, UniProt Q16620). Conditions: naturally occurring NGF vs BDNF; cited from earlier work.
Sequence of trkB receptor (Q16620 32-822): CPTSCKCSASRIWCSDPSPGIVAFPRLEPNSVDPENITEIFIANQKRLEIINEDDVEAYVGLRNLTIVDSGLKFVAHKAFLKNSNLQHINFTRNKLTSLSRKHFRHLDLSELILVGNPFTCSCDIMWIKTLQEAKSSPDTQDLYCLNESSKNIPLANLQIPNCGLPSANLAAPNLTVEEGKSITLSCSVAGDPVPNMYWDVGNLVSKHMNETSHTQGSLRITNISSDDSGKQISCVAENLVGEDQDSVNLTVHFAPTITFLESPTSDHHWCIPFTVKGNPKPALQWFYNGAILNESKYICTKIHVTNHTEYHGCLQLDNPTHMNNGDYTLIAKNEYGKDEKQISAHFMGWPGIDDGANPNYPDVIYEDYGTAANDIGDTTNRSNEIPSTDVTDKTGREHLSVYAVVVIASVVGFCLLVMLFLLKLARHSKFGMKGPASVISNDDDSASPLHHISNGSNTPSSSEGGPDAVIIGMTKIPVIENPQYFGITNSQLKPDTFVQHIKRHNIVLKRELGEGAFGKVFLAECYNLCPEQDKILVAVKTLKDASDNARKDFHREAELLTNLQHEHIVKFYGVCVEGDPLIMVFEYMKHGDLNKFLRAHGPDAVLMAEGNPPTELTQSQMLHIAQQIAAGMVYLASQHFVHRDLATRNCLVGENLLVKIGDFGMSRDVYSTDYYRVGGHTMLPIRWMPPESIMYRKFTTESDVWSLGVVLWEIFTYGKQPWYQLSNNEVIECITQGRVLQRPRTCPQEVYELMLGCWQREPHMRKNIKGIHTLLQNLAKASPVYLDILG

Sequence of trkC receptor (Q16288 32-839): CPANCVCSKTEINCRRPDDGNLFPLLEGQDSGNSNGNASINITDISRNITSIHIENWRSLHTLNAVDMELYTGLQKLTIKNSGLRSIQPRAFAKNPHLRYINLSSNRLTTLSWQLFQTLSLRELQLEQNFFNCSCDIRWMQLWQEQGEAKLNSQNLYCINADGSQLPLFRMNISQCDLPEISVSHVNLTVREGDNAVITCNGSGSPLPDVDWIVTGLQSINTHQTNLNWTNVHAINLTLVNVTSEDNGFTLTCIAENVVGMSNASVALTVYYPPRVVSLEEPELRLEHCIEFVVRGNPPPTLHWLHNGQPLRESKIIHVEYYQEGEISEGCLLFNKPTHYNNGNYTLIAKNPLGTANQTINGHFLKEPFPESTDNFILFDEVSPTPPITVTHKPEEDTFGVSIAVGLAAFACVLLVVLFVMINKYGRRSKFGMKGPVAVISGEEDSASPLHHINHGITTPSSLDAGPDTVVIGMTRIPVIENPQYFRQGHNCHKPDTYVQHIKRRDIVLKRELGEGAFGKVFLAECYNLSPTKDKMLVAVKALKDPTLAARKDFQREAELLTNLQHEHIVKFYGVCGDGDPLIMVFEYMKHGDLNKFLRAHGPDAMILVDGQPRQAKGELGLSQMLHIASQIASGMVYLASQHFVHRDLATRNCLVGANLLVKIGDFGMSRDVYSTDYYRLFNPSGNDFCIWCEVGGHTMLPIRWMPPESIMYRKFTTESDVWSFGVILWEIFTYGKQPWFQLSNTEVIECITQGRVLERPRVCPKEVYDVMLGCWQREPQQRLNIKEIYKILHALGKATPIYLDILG

Turning to nerve growth factor [NGF], the “neuroprotection of SGNs against sodium salicylate and gentamicin” value in assay [1] is listed as “did not show any detectable protection”. The “KD at trkC relative to NT-3 (fold lower)” value in the assay with trkC receptor is 500-1000 fold. For the same substance, in assay [2], the “protective effects against cisplatin neurotoxicity” value was “did not show any protective effects”. Besides, in assay [3], the “survival-promoting effect on SGNs” value is recorded as “no detectable effects”. For the same substance, in the assay with trkB receptor, the “KD at trkB relative to BDNF (fold lower)” value was 500-1000 fold.

Values taken from US6429191B1, “Treatment of hearing impairments” (Genentech, Inc., priority 1996, dated 2002).
